Test: wn = mass fraction of the nth substance listed
Settings: 101.33 kPa, Liquid

O=S(=O)(O)O [sulfuric acid] + O
Settings | mass density, w1 = 0.1 [kg/m3] | mass density, w1 = 0.2 [kg/m3] | mass density, w1 = 0.3 [kg/m3] | viscosity, w1 = 0.1 [mPa·s] | viscosity, w1 = 0.2 [mPa·s] | viscosity, w1 = 0.3 [mPa·s]
293.15 K | 1066.2 | 1139.5 | 1218.3 | 1.231 | 1.55 | 2.009
303.15 K | 1061.9 | 1133.3 | 1211.7 | 0.9804 | 1.229 | 1.601
313.15 K | 1056.8 | 1126.9 | 1204.3 | 0.7896 | 0.9887 | 1.306
323.15 K | 1051.8 | 1121.1 | 1198 | 0.661 | 0.8311 | 1.1
333.15 K | 1046.3 | 1115.3 | 1190.7 | 0.5598 | 0.7105 | 0.9426
343.15 K | 1039.6 | 1108.8 | 1184.2 | 0.4902 | 0.6409 | 0.8467

Reference: the NIST ThermoML archive (doi:10.1021/je050443o)
